# Test results as given in article PMC8448693, “Effects of co-formulants on the absorption and secretion of active substances in plant protection products in vitro” (Archives of Toxicology, 2021).
# Tests used:
# [1] = tested on: Caco-2 cells; test: WST-1 cytotoxicity assay in Caco-2 cells, 24 h exposure; format: cell-based; conditions: WST-1, Caco-2, 24 h; tested range ≤ 960 mg/L
# Experimental: Caco-2 cells (ECACC: 86010202) were purchased from the European Collection of Authenticated Cell Cultures (Salisbury, UK). […] The cells were cultivated at 37 °C, 5% CO2 and […] atmosphere in a cell culture incubator. They were passaged when reaching 80–90% confluence every 2 to 3 days. Passaging was performed at maximum ten times and by aspirating the medium, washing with phosphate-buffered saline (PBS) and incubating with trypsin–EDTA (0.05%) in Dulbecco’s phosphate-buffered saline (Capricorn Scientific GmbH, Ebsdorfergrund, Germany) at 37 °C for 3–5 min.
# Cytotoxicity was first analysed by water soluble tetrazolium assay (WST-1; Roche, Berlin, Germany), followed by neutral red uptake (NRU) assay. Caco-2 cells were seeded in 96-well plates at a density of 5000 cells per well and differentiated for three weeks. The cells were incubated with both active substances and all of the above-mentioned co-formulants individually, with a combination of the active substances and the respective surfactants in a ratio in accordance with the products, as well as with the respective products, containing all co-formulants, for 24 h. Eight different concentrations were investigated in culture medium with a final concentration of 0.4% DMSO. Triton X-100 (0.1%) served as a positive control. After 24 h incubation a WST-1 assay was performed according to the protocol provided by the supplier.
# [2] = tested on: Caco-2 cell membrane fluidity; test: DPH fluorescence anisotropy (membrane fluidity) in Caco-2 cells; format: cell-based; conditions: Caco-2, vs untreated control
# Experimental: Furthermore, the active ingredients and the products were investigated at sub-cytotoxic concentrations to rule out any impact of the active ingredients. Briefly, Caco-2 cells were cultivated in six-well plates for 21 days and detached on day 21 using 1 mL Accutase Cell Detachment Solution (ACC-1B, Capricorn Scientific GmbH, Ebsdorfergrund, Germany) per well. After incubation for 20-30 min at room temperature, detached cells were separated by centrifugation. […] Fluorescence anisotropy measurements were performed at 37 °C using a dual monochromator fluorescence spectrometer (model LS 55, PerkinElmer, Rodgau, Germany) fitted with polarizing filters and a stirred cell. Samples were excited with 355 nm vertical polarised light and emission was measured at 430 nm in vertical and horizontal direction. Since fluorescence anisotropy is inversely related to membrane fluidity, decreased DPH fluorescence anisotropy implies an increased membrane fluidity. Three independent experiments were performed (n = 3). The fluorescence anisotropy (r) is defined by following equation: […]: fluorescence intensity measured in direction parallel to the polarised exciting light.IVH: fluorescence intensity measured in direction perpendicular to the polarised exciting light.G: IVH/IHH; correction factor for the instrument.
# [3] = biological target: recombinant human Pgp (Homo sapiens, UniProt P08183); test: Pgp ATPase assay (Pgp-Glo assay system)
# Experimental: This study focused on potential effects on Pgp transporters.
# Pgp ATPase activity modulation was determined using the Pgp-Glo assay system (Promega, Madison, WI, USA) following the manufacturer's user protocol. Briefly, 25 µg of recombinant human Pgp membrane in Pgp-Glo assay buffer was incubated with different concentrations of each active substance or co-formulant in combination with 200 µM verapamil at 37 °C for 5 min. […] 5 mM MgATP was added to each well and 96-well plates were incubated at 37 °C for 40 min to initiate the reaction. Luminescence of the remaining, unmetabolised ATP was initiated by adding 50 µl of 25 mM ATP detection reagent. After briefly shaking on a plate shaker, 96-well plates were incubated at room temperature for 20 min. The luciferase generated luminescence signal was measured on an Infinite M200 PRO plate reader (Tecan, Maennedorf, Swiss). All measurements were corrected by subtraction of Na3VO4-treated signals (non Pgp ATPase activity) and represented as changes in luminescence signals (ΔRLU). […] Changes in luminescence (ΔRLU) caused by the co-formulants and abamectin incubated with verapamil were compared to ΔRLU caused by verapamil. ΔRLU values of the active ingredients (without verapamil) were compared to ΔRLU values of untreated samples (basal ΔRLU). Each condition was measured in four replicates (n = 4).
# recombinant human Pgp, sequence (P08183 whole entry): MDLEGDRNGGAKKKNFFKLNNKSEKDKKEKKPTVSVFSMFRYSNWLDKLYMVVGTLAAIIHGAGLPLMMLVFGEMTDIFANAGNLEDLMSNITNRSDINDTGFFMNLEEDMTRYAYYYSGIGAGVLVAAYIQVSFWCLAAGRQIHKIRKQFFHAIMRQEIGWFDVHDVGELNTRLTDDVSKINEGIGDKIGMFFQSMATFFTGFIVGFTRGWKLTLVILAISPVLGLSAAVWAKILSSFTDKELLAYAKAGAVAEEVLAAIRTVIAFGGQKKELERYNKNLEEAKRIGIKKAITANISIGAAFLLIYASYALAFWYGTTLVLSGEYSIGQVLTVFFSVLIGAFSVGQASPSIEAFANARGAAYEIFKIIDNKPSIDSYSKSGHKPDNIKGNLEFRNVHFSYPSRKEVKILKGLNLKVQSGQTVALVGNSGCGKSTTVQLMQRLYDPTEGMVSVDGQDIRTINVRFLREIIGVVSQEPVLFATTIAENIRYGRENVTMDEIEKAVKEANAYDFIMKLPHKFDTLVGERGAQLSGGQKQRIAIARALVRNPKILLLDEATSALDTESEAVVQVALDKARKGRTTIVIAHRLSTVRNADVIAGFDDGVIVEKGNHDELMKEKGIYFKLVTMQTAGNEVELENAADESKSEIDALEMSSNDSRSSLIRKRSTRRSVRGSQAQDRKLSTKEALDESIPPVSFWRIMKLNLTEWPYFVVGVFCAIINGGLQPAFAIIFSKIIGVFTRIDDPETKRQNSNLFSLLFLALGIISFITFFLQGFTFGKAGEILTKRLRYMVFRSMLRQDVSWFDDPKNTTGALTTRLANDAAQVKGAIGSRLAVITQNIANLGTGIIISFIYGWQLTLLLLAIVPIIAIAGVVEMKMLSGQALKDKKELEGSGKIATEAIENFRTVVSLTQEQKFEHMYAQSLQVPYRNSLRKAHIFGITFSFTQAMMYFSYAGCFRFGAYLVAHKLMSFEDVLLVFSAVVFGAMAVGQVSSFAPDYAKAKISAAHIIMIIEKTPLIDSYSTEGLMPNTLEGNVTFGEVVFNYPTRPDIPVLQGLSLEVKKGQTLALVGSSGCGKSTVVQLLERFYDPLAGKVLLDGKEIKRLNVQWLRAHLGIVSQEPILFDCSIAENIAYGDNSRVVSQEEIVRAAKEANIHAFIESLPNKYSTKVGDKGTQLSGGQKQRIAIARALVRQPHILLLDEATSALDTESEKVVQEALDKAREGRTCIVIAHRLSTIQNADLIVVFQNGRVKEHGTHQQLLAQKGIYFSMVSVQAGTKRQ
Compound,cytotoxic effects over the tested concentration range [1],impact on the fluorescence anisotropy ([2]; 64 mg/L),"stimulation of Pgp ATPase activity compared to the untreated control ([3]; 1.25 mg/L (lowest concentration), without verapamil)","maximum decreased ΔRLU value compared to the verapamil control ([3]; verapamil-stimulated (200 µM) Pgp ATPase activity, 2.5–64 mg/L, concentration-dependent inhibition)",impact on the fluorescence anisotropy ([2]; 10 mg/L)
CCCCCCC(C)OC(=O)COc1nc(F)c(Cl)c(N)c1Cl (centres unmarked) [fluroxypyr-meptyl],did not show significant cytotoxic effects,did not show a statistically significant impact,,,
abamectin,,,approximately 250%,30%,did not show a statistically significant impact
